Data on 12 molecules can be found in patent publication US4920134A, “2-O-pyrimidinyl glycerol derivatives” (Takeda Chemical Industries, Ltd., priority 1987, dated 1990).

One assay relates to HL-60 cells. The experiment in a line: Proliferation-inhibitory effect against human myelocytic leukemia HL-60 cells ([3H]thymidine incorporation). The class given is cell-based. As to conditions: 20 h + 4 h with [3H]thymidine, 37° C. As for the experimental part: Proliferation-inhibitory effect (IC50) of compounds in Examples against human myelocytic leukemia HL-60 cells HL-60 cells (human leukemia cell line) were suspended in GIT medium (Wako Pure Chemicals) containing a test compound to a concentration of 2×10^5 cells/ml, and 0.2 ml of the suspension was transferred to each well of a microwell plate having 96 wells. […] To determine the amount of thymidine incorporated into the cells, an acid-insoluble fraction was collected by a glass filter, and the radioactivity was measured by a liquid scintillation counter. The concentration of the drug which was required for 50% reduction of incorporated radioactivity from that of the control group without medication was taken as the IC50 value of the compound.
(In general: Dividing cells build labelled thymidine or BrdU into new DNA.)

A further assay concerns Sarcoma 180 cells. In words: Antitumor activity in ICR mice inoculated with Sarcoma 180 cells. The assay is classed as in vivo. As to conditions: Sarcoma 180, ICR mice, i.p., 0.33 mg/mouse; for life-span prolongation ratio T/C: 3 times (1 hour, 1 day, 2 days after inoculation), calculated only on survival days of died mice; for No. of survivors/No. of tested animals: 3 times, on the 60th day. As for the experimental part: (§1) Antitumor activity of compounds in Examples
ICR mice were intraperitoneally inoculated with 1×10^5 Sarcoma 180 cells per mouse, and then intraperitoneally given 0.33 mg/mouse of a compound of Examples dissolved in physiological saline, three times in total, i.e. 1 hour, 1 day and 2 days after the inoculation. The life-span prolongation ratio* (T/C %) against the control group without medication and the number of surviving mice on the 60th day are shown in Table 2.
*Calculated only on the survival days of died mice.

In assay [1] the test system is murine breast cancer MM46 cells. The experiment in a line: Antitumor activity in C3H mice inoculated with murine breast cancer MM46 cells. The class given is in vivo, C3 H mice. The conditions noted are these: i.p., 0.25 mg/mouse per administration; for life-span prolongation ratio T/C: once a day for 4 days from 2nd day, calculated only on survived days of died mice; for No. of survivors/No. of tested animals: once a day for 4 days, on the 60th day.
Excerpt: as §1
C3 H mice were intraperitoneally inoculated with 1×10^4 murine breast cancer MM46 cells, and then intraperitoneally given a compound of Examples dissolved in physiological saline once a day for 4 days from the 2nd day after the inoculation. The life-span prolongation ratio* (T/C %) against the control group without medication and the number of surviving mice on the 60th day are shown in Table 3.
*Calculated only on the survived days of died mice

In the next assay the test system is P388 cells. The experiment in a line: Antitumor activity in CDF1 mice inoculated with P388 cells. The assay is classed as in vivo. The conditions noted are these: i.p., 0.5 mg/mouse, twice (1 hour and 5 days after inoculation). As for the experimental part: CDF1 mice (5 heads per group) were intraperitoneally inoculated with 1×10^6 P388 cells per mouse, and then intraperitoneally given 0.5 mg/mouse of the compound in Example 2 dissolved in physiological saline, twice in total, i.e. 1 hour and 5 days after the inoculation. The life-span prolongation ratio (T/C %) against the control group without medication was 151%.

Turning to `CCCCCCCCCCCCCCCCCCOCC(COCCOCC[N+](C)(C)C)Oc1ncccn1.[Cl-]` (stereo not shown) [Example 1, N-2-[2-[3-Octadecyloxy-2-(pyrimidin-2-yloxy)propoxy]ethoxy]ethyl-N,N,N-trimethylammonium chloride], the IC50 in the assay with HL-60 cells was 0.63 µg/mL. Further, in the assay with Sarcoma 180 cells, the “life-span prolongation ratio T/C” value is 200% and the “No. of survivors/No. of tested animals” value is listed as 0/5. Moreover, in assay [1], the “life-span prolongation ratio T/C” value was 160% and the “No. of survivors/No. of tested animals” value is 4/5.

Regarding `CCCCCCCCCCCCCCCCCCOCC(COCCOCC[N+](C)(C)C)Oc1ccc(Cl)nn1` (stereo not shown) [Example 2, N-[2-[2-[2-(3-Chloropyridazine-6-yloxy)-3-octadecyloxy]propoxy]ethoxy]ethyl-N,N,N-trimethylammonium chloride], in the assay on HL-60 cells, the IC50 turned out to be 1.25 µg/mL. In assay [1], the “life-span prolongation ratio T/C” value is listed as 174% and the “No. of survivors/No. of tested animals” value was 1/5. Moreover, the “life-span prolongation ratio (T/C %)” value with P388 cells is on record as 151%.

On to `CCCCCCCCCCCCCCCCCCOCC(COCCOCC[N+](C)(C)C)Oc1cccnn1.[Cl-]` (stereo not shown) [Example 3, N-[2-[2-[3-Octadecyloxy-2-(pyridazin-3-yloxy)propoxy]ethoxy]ethyl]-N,N,N-trimethylammonium chloride], for which the IC50 in the assay on HL-60 cells came out at 0.32 µg/mL. In the assay with Sarcoma 180 cells, the “life-span prolongation ratio T/C” value is given as 269% and the “No. of survivors/No. of tested animals” value is 0/5.

In the case of `CCCCCCCCCCCCCCCCCCOCC(COCCOCC[n+]1ccsc1)Oc1ncccn1.[Cl-]` (stereo not shown) [Example 4, 3-[2-[2-[3-Octadecyloxy-2-(pyrimidin-2-yloxy)propoxy]ethoxy]ethyl]thiazolium chloride], in the assay with HL-60 cells, the IC50 was determined as 2.5 µg/mL. Moreover, in the assay on Sarcoma 180 cells, the “life-span prolongation ratio T/C” value is on record as 244% and the “No. of survivors/No. of tested animals” value is on record as 0/4.

On to `CCCCCCCCCCCCCCCCCCOCC(COCCOCC[n+]1cccc(C(N)=O)c1)Oc1ncccn1.[Cl-]` (stereo not shown) [Example 5, 3-Carbamoyl-1-[2-[2-[3-octadecyloxy-2-(pyrimidin-2-yloxy)propoxy]ethoxy]ethyl]pyridinium chloride], for which, in the assay with HL-60 cells, the IC50 was 0.63 µg/mL.

As to `CCCCCCCCCCCCCCCCCCOCC(COCCOCC[n+]1cccc(C(=O)[O-])c1)Oc1ncccn1` (stereo not shown) [Example 6, 1-[2-[2-[3-Octadecyloxy-2-(pyrimidin-2-yloxy)propoxy]ethoxy]ethyl]pyridinio-3-carboxylate], in assay [1], the “life-span prolongation ratio T/C” value is reported as 121% and the “No. of survivors/No. of tested animals” value is reported as 4/5.

With `CCCCCCCCCCCCCCCCCCOCC(COCCOCC[n+]1ccc(C(C)(C)C)cc1)Oc1ncccn1` (stereo not shown) [Example 8, 4-t.-Butyl-1-[2-[2-[3-octadecyloxy-2-(pyrimidin-2-yloxy)propoxy]ethoxy]ethyl]pyridinium chloride], in the assay with HL-60 cells, the IC50 stood at 1.25 µg/mL.

As to `CCCCCCCCCCCCCCCCCCOCC(COCCOCC[n+]1cccc(O)c1)Oc1ncccn1.[Cl-]` (stereo not shown) [Example 9, 3-Hydroxy-1-[2-[2-[3-octadecyloxy-2-(pyrimidin-2-yloxy)propoxy]ethoxy]ethyl]pyridinium chloride], in assay [1], the “life-span prolongation ratio T/C” value is given as 132% and the “No. of survivors/No. of tested animals” value was 1/3.

`CCCCCCCCCCCCCCCCCCOCC(COCCOCC[n+]1ccn(C)c1)Oc1ncccn1.[Cl-]` (stereo not shown) [Example 10, 1-Methyl-3-[2-[2-[3-octadecyloxy-2-(pyrimidin-2-yloxy)propoxy]ethoxy]ethyl]imidazolium chloride]: the IC50 in the assay with HL-60 cells worked out at 0.63 µg/mL.

For the molecule `CCCCCCCCCCCCCCCCCCOCC(COCCOCC[N+](C)(C)C)Oc1ccncn1.[Cl-]` (stereo not shown) [Example 11, N-2-[2-[3-Octadecyloxy-2-(pyrimidin-4-yloxy)propoxy]ethoxy]ethyl-N,N,N-trimethylammonium chloride], the IC50 in the assay with HL-60 cells amounted to 1.25 µg/mL.

Turning to `CCCCCCCCCCCCCCCCCCOCC(COCCOCC[n+]1cccc(C(N)=O)c1)Oc1ccncn1.[Cl-]` (stereo not shown) [Example 12, 3-Carbamoyl-1-[2-[2-[3-octadecyloxy-2-(pyrimidin-4-yloxy)propoxy]ethoxy]ethyl]pyridinium chloride], in the assay with HL-60 cells, the IC50 was determined as 2.5 µg/mL.

Regarding `CCCCCCCCCCCCCCCCCCOCC(COCCOCCOCC[N+](C)(C)C)Oc1ncccn1.[Cl-]` (stereo not shown) [Example 14, N-2-[2-[2-[3-Octadecyloxy-2-(pyrimidin-2-yloxy)propoxy]ethoxy]ethoxy]ethyl-N,N,N-trimethylammonium chloride], the IC50 in the assay with HL-60 cells was 2.5 µg/mL.

Broadly, the IC50 is the point on the concentration scale where inhibition reaches its midpoint.
